According to the NIST ThermoML archive (doi:10.1016/j.jct.2015.07.005):
Where “and” joins values, the source holds several entries; their conditions need not be identical. Equal entries are not always repeated.

Conditions: Gas, Frequency=0.005 MHz, Spherical cavity resonance method

CC [ethane]
Conditions	speed of sound
280.01 K, 500.43 kPa	294.64 m/s and 294.65 m/s and 294.64 m/s
280.02 K, 500.43 kPa	294.65 m/s and 294.65 m/s
280.02 K, 500.44 kPa	294.65 m/s
319.55 K, 463.5 kPa	316.22 m/s
319.55 K, 463.51 kPa	316.22 m/s
319.95 K, 464.08 kPa	316.4 m/s
319.95 K, 464.09 kPa	316.4 m/s
324.99 K, 479.74 kPa	318.64 m/s
324.99 K, 479.75 kPa	318.65 m/s
325 K, 479.75 kPa	318.65 m/s and 318.65 m/s
325 K, 479.76 kPa	318.65 m/s
339.37 K, 492.93 kPa	325.4 m/s
339.89 K, 493.66 kPa	325.64 m/s
359.27 K, 522.1 kPa	334.3 m/s
359.27 K, 522.11 kPa	334.3 m/s
359.85 K, 523.03 kPa	334.57 m/s and 334.57 m/s
365 K, 479.42 kPa	337.34 m/s and 337.34 m/s
365.01 K, 479.42 kPa	337.35 m/s and 337.35 m/s
365.01 K, 479.43 kPa	337.34 m/s and 337.35 m/s
379.19 K, 551.11 kPa	342.95 m/s
379.76 K, 551.9 kPa	343.19 m/s
379.77 K, 551.9 kPa	343.19 m/s
399.22 K, 579.97 kPa	351.41 m/s
399.8 K, 580.93 kPa	351.69 m/s and 351.69 m/s
404.98 K, 531.39 kPa	354.23 m/s
404.98 K, 531.4 kPa	354.23 m/s
404.98 K, 531.41 kPa	354.22 m/s
419.45 K, 608.87 kPa	359.75 m/s
419.46 K, 608.88 kPa	359.76 m/s
419.91 K, 609.51 kPa	359.94 m/s
419.92 K, 609.52 kPa	359.95 m/s
444.98 K, 496.44 kPa	370.72 m/s
444.98 K, 496.45 kPa	370.72 m/s and 370.72 m/s and 370.72 m/s
444.99 K, 496.45 kPa	370.72 m/s
484.95 K, 497.52 kPa	386.13 m/s
484.95 K, 497.53 kPa	386.13 m/s
484.95 K, 497.54 kPa	386.13 m/s
484.95 K, 497.55 kPa	386.14 m/s
484.95 K, 497.56 kPa	386.14 m/s
484.96 K, 497.55 kPa	386.14 m/s and 386.14 m/s
484.96 K, 539.51 kPa	386 m/s
484.96 K, 539.52 kPa	386 m/s and 386 m/s

COC(F)(F)C(F)(F)C(F)(F)F [heptafluoropropyl methyl ether]
Conditions	speed of sound
324.96 K, 164.7 kPa	110.67 m/s
324.97 K, 64.71 kPa	115.86 m/s and 115.86 m/s
324.97 K, 95.55 kPa	114.33 m/s
324.97 K, 95.56 kPa	114.33 m/s
324.97 K, 95.57 kPa	114.33 m/s
324.97 K, 95.59 kPa	114.33 m/s
324.97 K, 133.44 kPa	112.39 m/s
324.97 K, 133.45 kPa	112.39 m/s
324.97 K, 164.69 kPa	110.67 m/s
324.97 K, 164.72 kPa	110.67 m/s
349.97 K, 63.93 kPa	120.9 m/s
349.97 K, 63.94 kPa	120.9 m/s
349.97 K, 154.62 kPa	117.37 m/s
349.97 K, 154.64 kPa	117.37 m/s
349.97 K, 235.72 kPa	113.96 m/s
349.97 K, 235.74 kPa	113.96 m/s
349.97 K, 235.77 kPa	113.96 m/s
349.97 K, 317.58 kPa	110.17 m/s
349.97 K, 317.59 kPa	110.17 m/s
349.97 K, 317.63 kPa	110.17 m/s
374.95 K, 63.1 kPa	125.6 m/s and 125.6 m/s
374.95 K, 63.11 kPa	125.6 m/s
374.95 K, 160.58 kPa	122.61 m/s
374.95 K, 160.6 kPa	122.61 m/s
374.95 K, 285.28 kPa	118.5 m/s
374.95 K, 285.32 kPa	118.5 m/s
374.95 K, 285.36 kPa	118.5 m/s
374.95 K, 400.83 kPa	114.37 m/s
374.95 K, 400.86 kPa	114.37 m/s
374.95 K, 400.9 kPa	114.36 m/s
374.95 K, 510.48 kPa	110.03 m/s
374.95 K, 510.5 kPa	110.03 m/s
374.95 K, 632.78 kPa	104.58 m/s
374.95 K, 632.8 kPa	104.58 m/s
374.95 K, 632.82 kPa	104.58 m/s
374.96 K, 63.11 kPa	125.6 m/s
374.96 K, 160.58 kPa	122.61 m/s
399.99 K, 67.78 kPa	129.91 m/s
399.99 K, 197.55 kPa	126.68 m/s
399.99 K, 349.57 kPa	122.65 m/s
399.99 K, 650.2 kPa	113.69 m/s
399.99 K, 650.23 kPa	113.69 m/s
399.99 K, 806.55 kPa	108.28 m/s
399.99 K, 953.71 kPa	102.52 m/s
399.99 K, 953.73 kPa	102.52 m/s
399.99 K, 1130.3 kPa	94.29 m/s
400 K, 67.78 kPa	129.91 m/s
400 K, 197.63 kPa	126.68 m/s
400 K, 197.66 kPa	126.68 m/s
400 K, 349.52 kPa	122.65 m/s
400 K, 349.53 kPa	122.65 m/s
400 K, 502.98 kPa	118.27 m/s
400 K, 503.01 kPa	118.27 m/s
400 K, 503.03 kPa	118.27 m/s
400 K, 805.95 kPa	108.3 m/s
400 K, 805.97 kPa	108.3 m/s
400 K, 805.99 kPa	108.3 m/s
400 K, 806.53 kPa	108.28 m/s
400 K, 806.58 kPa	108.28 m/s
400 K, 953.71 kPa	102.52 m/s
400 K, 1130.2 kPa	94.3 m/s
424.94 K, 60.05 kPa	134.29 m/s
424.94 K, 60.06 kPa	134.29 m/s
424.94 K, 200.53 kPa	131.44 m/s
424.94 K, 200.58 kPa	131.44 m/s
424.94 K, 407.75 kPa	127 m/s
424.94 K, 407.78 kPa	127 m/s
424.94 K, 407.79 kPa	127 m/s
424.94 K, 407.83 kPa	127 m/s
424.94 K, 603.76 kPa	122.51 m/s
424.94 K, 603.77 kPa	122.51 m/s
424.94 K, 603.81 kPa	122.51 m/s
424.94 K, 802.02 kPa	117.61 m/s
424.94 K, 802.08 kPa	117.6 m/s
424.94 K, 802.15 kPa	117.6 m/s
424.94 K, 1005.8 kPa	112.1 m/s
424.94 K, 1006 kPa	112.1 m/s
424.94 K, 1006.1 kPa	112.09 m/s
424.94 K, 1202.6 kPa	106.2 m/s and 106.21 m/s
424.94 K, 1202.7 kPa	106.2 m/s
424.94 K, 1393 kPa	99.76 m/s
424.94 K, 1393.1 kPa	99.76 m/s
424.94 K, 1393.2 kPa	99.75 m/s
424.94 K, 1607.6 kPa	91.22 m/s
424.94 K, 1607.7 kPa	91.21 m/s
424.94 K, 1608.4 kPa	91.18 m/s
424.94 K, 1608.5 kPa	91.17 m/s
424.94 K, 1608.7 kPa	91.17 m/s
449.95 K, 64.75 kPa	138.25 m/s
449.95 K, 64.76 kPa	138.25 m/s
449.95 K, 208.64 kPa	135.84 m/s
449.95 K, 208.65 kPa	135.84 m/s
449.95 K, 396.59 kPa	132.57 m/s
449.95 K, 396.63 kPa	132.57 m/s
449.95 K, 396.66 kPa	132.57 m/s
449.95 K, 606.05 kPa	128.76 m/s
449.95 K, 606.08 kPa	128.76 m/s
449.95 K, 606.12 kPa	128.76 m/s
449.95 K, 606.24 kPa	128.76 m/s
449.95 K, 606.26 kPa	128.76 m/s
449.95 K, 606.27 kPa	128.76 m/s
449.95 K, 809.63 kPa	124.87 m/s
449.95 K, 809.64 kPa	124.87 m/s
449.95 K, 1001.1 kPa	121.03 m/s and 121.04 m/s
449.95 K, 1209.6 kPa	116.6 m/s
449.95 K, 1209.7 kPa	116.6 m/s
449.95 K, 1413.8 kPa	111.99 m/s
449.95 K, 1623.9 kPa	106.9 m/s
449.96 K, 1001.1 kPa	121.04 m/s
449.96 K, 1624.3 kPa	106.89 m/s
475 K, 67.47 kPa	142.11 m/s
475 K, 67.48 kPa	142.11 m/s
475 K, 67.49 kPa	142.12 m/s
475 K, 67.62 kPa	142.11 m/s
475 K, 67.64 kPa	142.11 m/s
475 K, 189.2 kPa	140.43 m/s
475 K, 189.28 kPa	140.42 m/s
475 K, 395.98 kPa	137.47 m/s
475 K, 395.99 kPa	137.47 m/s
475 K, 396.05 kPa	137.47 m/s
475 K, 396.11 kPa	137.47 m/s
475 K, 396.13 kPa	137.47 m/s
475 K, 396.16 kPa	137.47 m/s
475.01 K, 396.09 kPa	137.47 m/s
475.01 K, 396.11 kPa	137.47 m/s
475.01 K, 587.06 kPa	134.67 m/s
475.01 K, 795.76 kPa	131.5 m/s
475.01 K, 1005.5 kPa	128.23 m/s
475.01 K, 1197.2 kPa	125.14 m/s
475.01 K, 1402 kPa	121.75 m/s
475.01 K, 1402.1 kPa	121.75 m/s
475.02 K, 795.76 kPa	131.5 m/s
475.02 K, 1005.5 kPa	128.23 m/s
475.02 K, 1197.2 kPa	125.14 m/s
475.02 K, 1402.1 kPa	121.75 m/s
475.02 K, 1583.1 kPa	118.65 m/s
475.02 K, 1583.2 kPa	118.65 m/s
500.01 K, 62.05 kPa	145.96 m/s
500.01 K, 62.06 kPa	145.96 m/s
500.01 K, 62.27 kPa	145.95 m/s
500.01 K, 192.99 kPa	144.43 m/s
500.01 K, 193.25 kPa	144.42 m/s
500.01 K, 193.35 kPa	144.42 m/s
500.01 K, 400.4 kPa	141.96 m/s
500.01 K, 400.43 kPa	141.96 m/s
500.01 K, 400.48 kPa	141.96 m/s
500.01 K, 400.64 kPa	141.97 m/s
500.01 K, 400.67 kPa	141.97 m/s
500.01 K, 605.81 kPa	139.49 m/s
500.01 K, 804.2 kPa	137.05 m/s
500.02 K, 400.69 kPa	141.97 m/s
500.02 K, 605.7 kPa	139.49 m/s
500.02 K, 804.24 kPa	137.05 m/s
500.02 K, 804.31 kPa	137.05 m/s
500.02 K, 1002.8 kPa	134.57 m/s
500.02 K, 1206.9 kPa	131.99 m/s and 131.98 m/s
500.02 K, 1207 kPa	131.98 m/s
500.02 K, 1400.6 kPa	129.51 m/s and 129.5 m/s
500.02 K, 1400.7 kPa	129.5 m/s
500.02 K, 1593.1 kPa	127 m/s
500.03 K, 1593.1 kPa	127.01 m/s and 127 m/s
